The results in this text go back to patent US20090233796A1, “HERBICIDAL COMPOSITION” (SYNGENTA CROP PROTECTION, INC., priority 2004, published 2009).

Holding throughout (assay type): in vivo
One experiment has as its system ABUTILON THEOPHRASTI
As to the kind of experiment: Compound (A) with S-metolachlor, weed plots. Conditions: 1420 g/ha. An excerpt:
[…] The compositions were formulated as an emulsifyable concentrate (EC).
(§1) The results in the table under each application are the percentage of the plants that were killed.

Another experiment relates to AMBROSIA ARTEMISIIFOLIA
As to the kind of experiment: Compound (A) with S-metolachlor, weed plots. The settings on record: 1420 g/ha. As to the method: (§2) In these tests, various weeds were treated with S-metolachlor (SMOC) alone at an application rate equivalent to 1420 g per hectare, Compound (A) alone at rates equivalent to 20 g per hectare and […] and with mixtures of S-metolachlor and the Compound (A) at rates equivalent to the sum of these. The compositions were formulated as an emulsifyable concentrate (EC).
as §1

The test system of experiment [1] is E[…]-GALLI. Nature of the experiment: Compound (A) with S-metolachlor, weed plots. The settings on record: 1420 g/ha; 28 DAA; Trial 4.1. The procedure: as §2, §1
A further experiment has as its system XANTHIUM STRUMARIUM
As to the kind of experiment: Compound (A) with S-metolachlor, weed plots. Conditions: 1420 g/ha. As to the method:
as §2, §1

A further experiment deals with POLYGONUM PENSYLVANICUM
Nature of the experiment: Compound (A) with S-metolachlor, weed plots. The settings on record: 1420 g/ha; 56 DAA; Trial 4.14. The procedure:
as §2, §1

Another experiment has as its system IPOMOEA SP. Nature of the experiment: Compound (A) with S-metolachlor, weed plots. The settings on record: 1420 g/ha. The procedure:
as §2, §1

The test system of another experiment is SESBANIA EXALTATA
As to the kind of experiment: Compound (A) with S-metolachlor, weed plots. The settings on record: 1420 g/ha; 56 DAA; Trial 4.2. The procedure: as §2, §1

The test system of the next experiment is C[…]. As to the kind of experiment: Compound (A) with S-metolachlor, weed plots. The settings on record: 1420 g/ha. The procedure:
as §2, §1

In the next experiment the test system is AMBROSIA TRIFIDA. As to the kind of experiment: Compound (A) with S-metolachlor, weed plots. Conditions: 1420 g/ha. As to the method:
as §2, §1

The test system of the next experiment is STELLARIA MEDIA. Nature of the experiment: Compound (A) with triasulfuron, weed plots. The settings on record: 26 g per hectare; 30 DAA; No. 3.1. As to the method: In these tests, various weeds were treated with triasulfuron alone at a rate equivalent to 26 g per hectare, Compound (A) alone at a rate equivalent to 10 g per hectare, and to a mixture of triasulfuron and Compound (A) at rates equivalent to the sum of these. The compositions were formulated as an emulsifyable concentrate (EC).
as §1

The subject of the next experiment is SETARIA SP. Nature of the experiment: Compound (A) with paraquat, weed plots. The settings on record: 700 g/ha; 27 DAA; No. 1.2. The procedure: (§3) In these tests, various weeds were treated with paraquat alone at rates equivalent to 700 g per hectare and 840 g per hectare, compound (A) alone at rates equivalent to 10 g per hectare and 20 g per hectare, and with a mixture of paraquat and compound (A) at rates equivalent to the sum of these. The compositions were formulated as an emulsifyable concentrate (EC).
(§4) The results in the table under each application are the percentage of the weeds plants that were killed.

The subject of the next experiment is DIGITARIA CILIARIS
As to the kind of experiment: Compound (A) with paraquat, weed plots. Conditions: 700 g/ha; 51 DAA; No. 1.7. As to the method: as §3, §4

The test system of experiment [2] is E[…]-GALLI. As to the kind of experiment: Compound (A) with paraquat, weed plots. The settings on record: 700 g/ha; 51 DAA; No. 1.8. The procedure: as §3, §4
A further experiment has as its system LAMIUM PURPUREUM
Nature of the experiment: Compound (A) with paraquat, weed plots. Conditions: 700 g/ha; 2 DAA; No. 1.5. As to the method:
as §3, §4

The test system of another experiment is SETARIA VIRIDIS. Nature of the experiment: Compound (A) with paraquat, weed plots. The settings on record: 700 g/ha; 43 DAA; No. 1.3. The procedure:
as §3, §4

The next experiment deals with CONYZA SP. As to the kind of experiment: Compound (A) with paraquat, weed plots. The settings on record: 700 g/ha, 5 DAA. As to the method:
as §3, §4

The test system of the next experiment is SONCHUS ASPER. As to the kind of experiment: Compound (A) with paraquat, weed plots. Conditions: 840 g/ha; 32 DAA; No. 1.10. The procedure:
as §3, §4

A further experiment relates to LOLIUM RIGIDUM. Nature of the experiment: Compound (A) with paraquat, weed plots. Conditions: 700 g/ha; 41 DAA; No. 1.4. The procedure: as §3, §4
The next experiment relates to VERONICA PERSICA. Nature of the experiment: Compound (A) with paraquat, weed plots. The settings on record: 700 g/ha; 69 DAA; No. 1.6. As to the method: as §3, §4
Another experiment concerns CYPERUS ROTUNDUS
As to the kind of experiment: Compound (A) with paraquat, weed plots. The settings on record: 840 g/ha; 56 DAA; No. 1.11. As to the method: as §3, §4

Molecules are shown by their SMILES.

On to `CCc1cccc(C)c1N(C(=O)CCl)[C@@H](C)COC` [SMOC, S-metolachlor, reference compound], for which the “percentage of the plants that were killed” value in the experiment with ABUTILON THEOPHRASTI (15 DAA, Trial 4.12) stood at 65%; with ABUTILON THEOPHRASTI (23 DAA, Trial 4.3), 13%; in the experiment on ABUTILON THEOPHRASTI (38 DAA, Trial 4.4) it was 0%; in the experiment with ABUTILON THEOPHRASTI (56 DAA, Trial 4.13), 0%; with AMBROSIA ARTEMISIIFOLIA (25 DAA, Trial 4.7), 30%; with AMBROSIA ARTEMISIIFOLIA (49 DAA, Trial 4.8), 30%. Besides, the “percentage of the plants that were killed” value was 75% in the experiment on E[…]-GALLI [1]; 38% in the experiment on XANTHIUM STRUMARIUM (26 DAA, Trial 4.17); 30% in the experiment on XANTHIUM STRUMARIUM (42 DAA, Trial 4.18); 0% in the experiment with POLYGONUM PENSYLVANICUM; 0% with IPOMOEA SP. (25 DAA, Trial 4.9); 0% with IPOMOEA SP. (49 DAA, Trial 4.10). Further, the “percentage of the plants that were killed” value with SESBANIA EXALTATA amounted to 20%; in the experiment on C[…] (26 DAA, Trial 4.5), 0%; in the experiment on C[…] (54 DAA, Trial 4.6) it was 0%; with C[…] (56 DAA, Trial 4.11), 0%; in the experiment on AMBROSIA TRIFIDA (8 DAA, Trial 4.16) it was 25%; in the experiment with AMBROSIA TRIFIDA (42 DAA, Trial 4.15) it was 25%.

In the case of `COc1nc(C)nc(NC(=O)NS(=O)(=O)c2ccccc2OCCCl)n1` [Triasulfuron, triasulfuron, reference compound], in the experiment with STELLARIA MEDIA, the “percentage of the plants that were killed” value was 25%.

On to `C[n+]1ccc(-c2cc[n+](C)cc2)cc1` [paraquat, reference compound], for which the “percentage of the weeds plants that were killed” value in the experiment with SETARIA SP. is recorded as 0%; in the experiment on DIGITARIA CILIARIS, 0%; in the experiment on E[…]-GALLI [2] it was 0%; with LAMIUM PURPUREUM, 53%; in the experiment with SETARIA VIRIDIS it was 0%; in the experiment on CONYZA SP. (No. 1.1), 2%. Besides, the “percentage of the weeds plants that were killed” value is 2% with CONYZA SP. (No. 1.9); 0% with SONCHUS ASPER; 53% in the experiment with LOLIUM RIGIDUM; 25% in the experiment on VERONICA PERSICA; 65% in the experiment with CYPERUS ROTUNDUS.
